Assays:
[1] = tested on: FADU subcutaneous human xenograft; assay: In vivo tumor growth delay study, FADU subcutaneous human xenograft mouse model
Excerpt: (§1) Tumor Studies. Female NCr nu/nu mice (Crl:NU(NCr)-Foxn1 nu, Strain 490) were obtained from Charles River at 5-6 weeks of age. All animal procedures used in these studies were approved by the Institutional Animal Care and Use Committee (IACUC) at Duke University.
(§2) FADU or MDA-MB-231 cells were harvested during log phase growth for in vivo implantation. The resuspended cells were washed three times in phosphate buffered saline (PBS) before preparing the working dilution in PBS. FADU cells were diluted to 1×10^7 cells/mL and MDA-MB-231 cells were diluted to 5×10^7 cells/mL. Each mouse was injected subcutaneously in the right flank with 100 μL of the cellular suspension. Tumor growth was monitored until the tumors reached a target volume of at least 100 mm^3, at which point mice were randomly stratified into four treatment groups.
(§3) Following implantation of the tumor cell lines, mice were monitored once weekly for tumor development. Upon detection, tumors were measured in two dimensions using digital calipers. Tumors were treated after reaching at least 100 mm^3 and were measured two to three times weekly following enrollment in one of the treatment groups. The study endpoint was defined as tumor quintupling from the volume at time of treatment.
The vehicle used in this study was 0.5% (Hydroxypropyl)methyl cellulose (HPMC) and 0.2% Tween80 dissolved in deionized water. The pH of the vehicle was adjusted to 7.0-8.0 and the vehicle was stored at 4° C. […]
In vivo tumor growth delay study was performed as follows. Following implantation of the tumor cell lines, mice were monitored once weekly for tumor development. […]
(§4) Statistical and Graphical Analysis of the in vivo data. […] In order to adjust for the differing tumor sizes at the start of treatment, the relative tumor volume was calculated by dividing the tumor volume at each time point by the volume at baseline. […] When an animal exited the study due to tumor quintupling, the final tumor volume recorded for the animal was included with the data used to calculate the median volume at subsequent time points. […]

[2] = tested on: pDNA-PK/DNA-PK in FADU tumors; assay: Pharmacodynamic assay, pDNA-PK/DNA-PK in FADU tumors; assay type: in vivo, mice; settings: for pDNA-PK/DNA-PK: FADU tumors
Excerpt: as §1, §2
(§5) The vehicle used in this study was 0.5% (Hydroxypropyl)methyl cellulose (HPMC) and 0.2% Tween80 dissolved in deionized water. The pH of the vehicle was adjusted to 7.0-8.0 and the vehicle was stored at 4° C. On each day of in vivo treatment an appropriate mass of test compound was added to the vehicle at room temperature. The mixture was vortexed as necessary to generate a final concentration of 1.6 mg/mL.
(§6) Pharmacodynamic (PD) assays. Tumor studies were performed as follows. Mice bearing FADU or MDA-231 tumors were pre-dosed with vehicle alone or compound 569 alone at 3, 6, and 10 mg/kg. Tumors were then irradiated with 10 Gy 45 min after vehicle or compound 569 administration or left unirradiated (vehicle and compound 569 at 10 mg/kg). Tumors were harvested 1 h post radiation.
(§7) Tissue homogenates for pharmacodynamic analyses were collected and processed as follows. Tumor tissues from FADU or MDA-MB-231 tumors were flash frozen in liquid nitrogen and pulverized on dry ice using a tissue pulverizer. A portion of the tumor powder was transferred into a microtube, followed by addition of 500 μL of RIPA buffer [[…], pH 8.0, 150 mM NaCl, 0.1% SDS, 0.5% sodium deoxycholate, 1% IGEPAL® CA-630 (Sigma, 18896)]. To 10 ml of RIPA buffer, 2 tablets each of Protease inhibitor and Phosphatase inhibitor (Roche, #04693159001 & #04906837001), 200 μL of 0.1 M PMSF and 160 μL of Aprotinin, (Sigma, A6279) were added. The suspension was homogenized on ice with a pellet pestle motor (KONTES) and incubated on ice for 30 minutes. Cell lysates were centrifuged at 13,200 rpm for 15 min at 4° C. and supernatants were transferred to a new tube and analyzed for protein concentration with a BCA kit (Pierce, 23227), followed by immunoblotting.

[3] = tested on: MDA-MB-231 subcutaneous human xenograft; assay: In vivo tumor growth delay study, MDA-MB-231 subcutaneous human xenograft mouse model
Excerpt: as §1, §2, §3, §5
In vivo tumor growth delay study was performed as follows. Following implantation of the tumor cell lines, mice were monitored once weekly for tumor development. Upon development of a tumor measuring at least 100 mm^3, tumor-bearing mice were stratified to one of 4 groups, utilizing 5 mice per group. Tumor volumes were between 100 and 500 mm^3. Vehicle or compound 569 (10 mg/kg) were administered by oral gavage once daily for three consecutive days (qd×3), alone or in combination with focal radiation. The delivered volume of vehicle or compound 569 was adjusted based on body weight of the individual animals. […]
as §4

[4] = tested on: pKAP1/KAP1 in FADU tumors; assay: Pharmacodynamic assay, pKAP1/KAP1 in FADU tumors; assay type: in vivo, mice; settings: for pKAP1/KAP1: FADU tumors
Excerpt: as §1, §2, §5, §6, §7

[5] = tested on: pDNA-PK/DNA-PK in MDA-231 tumors; assay: Pharmacodynamic assay, pDNA-PK/DNA-PK in MDA-231 tumors; assay type: in vivo, mice
Excerpt: as §1, §2, §5, §6, §7

[6] = 10 Gy, 3 mg/kg oral, harvested 1 h post radiation
[7] = 10 Gy, 6 mg/kg oral, harvested 1 h post radiation
[8] = 10 Gy, 10 mg/kg oral, harvested 1 h post radiation

Question: What does the source list for `CC(C)NCCOc1ncc(-c2cc3c4c(cnc3cc2F)N(C)C(=O)C42CCC2)cc1NS(C)(=O)=O` [Compound 569, N-(5-(7′-Fluoro-3′-methyl-2′-oxo-2′,3′-dihydrospiro[cyclobutane-1,1′-pyrrolo[2,3-c]quinolin]-8′-yl)-2-(2-(isopropylamino)ethoxy)pyridin-3-yl)methanesulfonamide]?
Answer: tumor growth curves and quintupling-free survival ([1]; FADU, Group 2 (10 mg/kg qd×3 alone) versus Group 1 (vehicle)): nearly identical to those for Group 1; overall survival compared to Group 1, Group 2 and Group 3 ([1]; FADU, Group 4: 10 mg/kg + 3 Gy qd×3, P<0.01, logrank): significantly improved; tolerability ([1]; FADU-bearing mice, 10 mg/kg qd×3 alone or with 3 Gy): well-tolerated; inhibition of radiation-induced DNA-PK autophosphorylation and KAP1 phosphorylation in tumors ([2]; FADU and MDA231 tumors, 10 Gy, 3, 6 and 10 mg/kg oral): dose-dependent inhibition; pDNA-PK/DNA-PK [2, 6]: 0.938; pDNA-PK/DNA-PK [2, 7]: 0.658; pDNA-PK/DNA-PK [2, 8]: 0.476; pDNA-PK/DNA-PK ([2]; no radiation, 10 mg/kg oral): 0.343; inhibition at 10 mg/kg ([2]; Mus musculus, FADU and MDA231 tumors (FIGS. 4 and 5, Tables 2-5), 10 Gy, 10 mg/kg, read-out: inhibition of tumor levels of radiation-induced autophosphorylation of DNA-PK): ~55%; basal phosphorylation of DNA-PK in tumors ([2]; unirradiated tumors, 10 mg/kg): inhibited; tumor growth curves and quintupling-free survival ([3]; MDA-MB-231, Group 2 (10 mg/kg qd×3 alone) versus Group 1 (vehicle)): nearly identical to those for Group 1; overall survival compared to Group 1, Group 2 and Group 3 ([3]; MDA-MB-231, Group 4: 10 mg/kg + 3 Gy qd×3, P<0.01, logrank): significantly improved; animals found dead ([3]; MDA-MB-231, Group 4: 10 mg/kg + 3 Gy qd×3, unknown causes): One animal was found dead on Day 35; tolerability ([3]; MDA-MB-231-bearing mice, 10 mg/kg qd×3 alone or with 3 Gy): well-tolerated; pKAP1/KAP1 [4, 6]: 0.0903; pKAP1/KAP1 [4, 7]: 0.0982; pKAP1/KAP1 [4, 8]: 0.156; pKAP1/KAP1 ([4]; no radiation, 10 mg/kg oral): 0.00595; inhibition at 10 mg/kg ([4]; Mus musculus, FADU and MDA231 tumors (FIGS. 4 and 5, Tables 2-5), 10 Gy, 10 mg/kg, read-out: inhibition of tumor levels of radiation-induced phosphorylation of KAP1): > 80%; pDNA-PK/DNA-PK [5, 6]: 0.889; pDNA-PK/DNA-PK [5, 7]: 0.670; pDNA-PK/DNA-PK [5, 8]: 0.454; pDNA-PK/DNA-PK ([5]; no radiation, 10 mg/kg oral): 0.223

From patent US20220142995A1, “DUAL ATM AND DNA-PK INHIBITORS FOR USE IN ANTI-TUMOR THERAPY” (XRAD Therapeutics, Inc., priority 2019, published 2022)
